Assay results reported in US20090055945A1, “Method for Producing Nuclear-Transplanted Egg” (priority 2005, published 2009).

Columns and labels:
[1] = system: oocytes injected with mature sperm (ICSI); experiment: Paternal genome DNA methylation, mature sperm injection (ICSI); format: cell-based, mouse; conditions: 10 μM 5-azacytidine, 20 hours
Procedure: The oocytes injected with the nuclear domains of round spermatids obtained by ROSI were cultured for 20 hours in the presence of 20 ng/ml of demecolcine in a medium containing 10 μM 5-azacytidine (5-aza) or 500 nM TSA as an anti-methylation agent. Similarly, injection of mature sperms was carried out (ICSI (intracytoplasmic sperm injection)). Specifically, heads of sperms were separated from the tails by applying pulses to the head-tail junctions by means of a piezo-driven pipette (PrimeTech), and injected into oocytes. The oocytes were not subjected to activation in this case. […]
For quantitative analysis of pronuclear DNA methylation levels, fluorescence images were subjected to densitometric analysis using the program Image-J from the National Institute of Health (http://rsb.info.nih.gov/ij/). For each pronucleus, the relative intensity of methylation of the paternal genome was calculated as a percentage of the fluorescence intensity of the maternal genome. In Table 3, data with (b) and without (a) anti-methylation agent were statistically analyzed by Scheffe tests for multiple mean comparisons using the statistical program SPSS version 12.0 (SPSS Inc.). […]

[2] = system: oocytes injected with nuclear domains of round spermatids (ROSI); experiment: Paternal genome DNA methylation, spermatid injection (ROSI); format: cell-based, mouse; conditions: Spermatid (ROSI); 10 μM 5-azacytidine, 20 hours
Procedure: The oocytes injected with the nuclear domains of round spermatids obtained by ROSI were cultured for 20 hours in the presence of 20 ng/ml of demecolcine in a medium containing 10 μM 5-azacytidine (5-aza) or 500 nM TSA as an anti-methylation agent. Similarly, injection of mature sperms was carried out (ICSI (intracytoplasmic sperm injection)). Specifically, heads of sperms were separated from the tails by applying pulses to the head-tail junctions by means of a piezo-driven pipette (PrimeTech), and injected into oocytes. The oocytes were not subjected to activation in this case.
The cultured oocytes injected with nuclei were fixed in PBS containing 4% paraformaldehyde at 4° C. overnight, washed in PBS containing 0.1% polyvinyl alcohol (PVA), and blocked in PBS containing 3% bovine serum albumin (BSA) and 0.2% Triton X-100 at 4° C. overnight. Subsequent steps were carried out at room temperature. The fixed oocytes injected with nuclei were permeabilized by treating with 0.2% Triton X-100 in PBS at room temperature. The oocytes were then treated with 2N HCl at room temperature for 50 minutes, neutralized in 100 mM Tris-HCl buffer (pH 8.0) (Non-patent Document 15), and extensively washed with PBS containing 1% BSA.
Next, incubation. with an anti-5-methylcytidine antibody (Eurogentec) in PBS containing 0.1% PVA was carried out for 2 to 3 hours. After extensively being washed, oocytes were stained with Alexa Flour-488 secondary antibody (Molecular Probes), stained with 5 μg/ml 4′,6′-diamidino-2-phenylindole (DAPI) for 30 minutes, and mounted using Vectashield (Vector Laboratory). The specimens were observed using Olympus BX51 microscope (Olympus). All images were captured with DP70 Olympus digital camera using Olympus Analysis software to apply colors to DAPI-stained DNA and merged images.
For quantitative analysis of pronuclear DNA methylation levels, fluorescence images were subjected to densitometric analysis using the program Image-J from the National Institute of Health (http://rsb.info.nih.gov/ij/). For each pronucleus, the relative intensity of methylation of the paternal genome was calculated as a percentage of the fluorescence intensity of the maternal genome. In Table 3, data with (b) and without (a) anti-methylation agent were statistically analyzed by Scheffe tests for multiple mean comparisons using the statistical program SPSS version 12.0 (SPSS Inc.). All percentile data were subjected to arcsine transformation prior to the statistical analysis.

[3] = system: immortalized bovine mammary epithelial cells (MECL) or bovine fetal fibroblasts (BFF); conditions: MECL or BFF treated before nuclear transfer; Non-patent Document 2; cited from earlier work
[4] = system: nuclear transfer oocytes (nuclei from cumulus cells in enucleated oocytes); experiment: Expanded blastocyst formation of nuclear transfer oocytes (cumulus cell nuclei); format: cell-based, mouse; conditions: 5 μM apicidin
Procedure: Production of cloned mice including production of nuclear transfer embryos was carried out according to the method as described in Non-patent Document 5. Briefly, pregnant mare serum gonadotrophin (PMSG) was first administered to 8-weeks-old female B6D2F1 (C57BL/6 XDBA/2) mice (Japan SLC) for superovulation treatment. Human choriogonadotropin (hCG) was administered after 48 hours. Oocytes were collected after 16 hours. Nuclei were removed from the collected unfertilized oocytes in the presence of 5 μg/ml of cytochalasin B using a micromanipulator (enucleation).
Next, cell membranes of cumulus cells from a B6D2F1 mouse as donor somatic cells suspended in a 1.2% polyvinylpyrrolidone (PVP) solution were destroyed using an injection pipette, and the nuclei were injected into the enucleated oocytes using a micromanipulator (nuclear transfer). A piezo drive apparatus (Prime Tech) was used to generate piezo-pulses for penetration of zona pellucida or cell membranes which is required for injection of nuclei.
The thus obtained nuclear transfer oocytes were cultured in a CO2 incubator at 37° C. for 30 minutes to 1 hour. The oocytes were then transferred to an oocyte activation solution (Ca^2+-free CZB medium supplemented with 5 mM strontium chloride (SrCl2) and 5 μg/ml of cytochalasin B (Non-patent Document 10)) containing 0.5, 5, 50 or 500 nM trichostatin A (hereinafter referred to as TSA) to artificially activate the oocytes and initiate the development. Activation of oocytes was confirmed 6 hours after the initiation of activation using pronuclei formation as an index. Activated nuclear transfer oocytes were transferred to KSOM medium (Specialty Media) containing TSA at the same concentration, and cultured for further 14 hours (for 20 hours after the initiation of activation) in the medium. For a control, dimethyl sulfoxide (DMSO), which was used for dissolving TSA, was used in place of TSA to produce the same concentration.
Then, the nuclear transfer embryos at the 2-cell stage were cultured in KSOM medium without TSA until 96 hours after the initiation of activation, and development into expanded blastocysts was observed. The development into expanded blastocyst was confirmed by culturing for 96 hours after the initiation of activation and then observing under a microscope one in which the volume of embryo was increased to result in expansion of the blastocyst and thinning of zona pellucida among blastocysts having blastocoels. 80 or more embryos were examined in each of the experimental groups of the respective concentrations.
The ratio of the developed blastocysts to the number of nuclear transfer oocytes used (blastocyst formation rate (%)) was determined. The ratio of the developed expanded blastocysts to the number of oocytes that initiated cleavage (i.e., developed into the 2-cell stage) among the reconstructed nuclear transfer oocytes (blastocyst formation rate (%)) was determined.
Nuclear transfer oocytes were produced by injecting nuclei from cumulus cells into enucleated oocytes according to the method as described in Example 1, cultured in KSOM medium containing TSA at a concentration of 5 nM for various periods of time (for 0, 24, 48 or 72 hour(s) from the initiation of activation), and then cultured in KSOM medium without TSA until 96 hours after the initiation of activation. Then, development into expanded blastocysts was observed and the blastocyst formation rate was determined. […]

Question: Which results are given for `Nc1ncn([C@@H]2O[C@H](CO)[C@@H](O)[C@H]2O)c(=O)n1` [5-aza, 5-azacytidine]?
Answer: Ratio of methylation level of paternal genome to maternal genome (%) [1]: 17.5^b %; Ratio of methylation level of paternal genome to maternal genome (%) [2]: 54.9^b %

Question: For `CCCC(=O)[O-].[Na+]` [sodium butyrate], which blastocyst development rate [3] is on record?
Answer: The blastocyst development rate was “increased”.

Question: What does the source list for `CCC(=O)CCCCC[C@@H]1NC(=O)[C@H]2CCCCN2C(=O)[C@H]([C@@H](C)CC)NC(=O)[C@H](Cc2cn(OC)c3ccccc23)NC1=O` [apicidin]?
Answer: increase in blastocyst formation rate vs control [4]: about 2 fold; blastocyst formation rate ([4]; method of Example 1): 69.0%
